{"source": "patent US11287431B2", "about": "“Method of testing for pulmonary hypertension” (TOHOKU UNIVERSITY, priority 2014, dated 2022)", "test_system": "pulmonary artery smooth muscle cells (PASMC) in idiopathic pulmonary arterial hypertension (IPAH) patients", "assay": "Selenoprotein P protein secretion by IPAH-PASMC at hypoxia, western blot of whole cell lysates and conditioned medium", "assay_type": "cell-based, human", "details": "IPAH-PASMC cultured 24 hours at hypoxia (oxygen concentration: 2%) in the presence of fasudil (hydroxyfasudil concentration: 10 μM), versus normoxia and hypoxia alone", "text": "The response of pulmonary artery smooth muscle cells (PASMC) in idiopathic pulmonary arterial hypertension (IPAH) patients (hereinafter also referred to as IPAH-PASMC) to hypoxia stimulation was observed.\nPrimary cell lines were established from pulmonary vascular smooth muscle in idiopathic pulmonary arterial hypertension patients, in accordance with the following document: Ogawa A, Nakamura K, Matsubara H, Fujio H, Ikeda T, Kobayashi K, Miyazaki I, Asanuma M, Miyaji K, Miura D, Kusano K F, Date H, Ohe T, Circulation, 2005; 112: 1806-1812. The pulmonary vascular smooth muscle in idiopathic pulmonary arterial hypertension patients was isolated from pulmonary arteries having an outer diameter of 1.5 mm or less.\nIPAH-PASMC was cultured in D-MEM medium supplemented by 10% FBS (fetal bovine serum) at 37° C. under constant temperature and constant humidity conditions at 95% air and 5% CO2 in accordance with a usual method. In this test, passage 4 to 7 cells at a confluence of 70 to 80% were used. […]\nAfter culturing, whole cell lysates and a conditioned medium were prepared for each sample, and selenoprotein P protein was detected by western blot analysis."}
{"compound": "O=S(=O)(c1cccc2cnccc12)N1CCCNCC1", "note": "[fasudil]", "values": [{"measurement": "extracellular secretion of selenoprotein P protein (into the medium)", "value": "enhanced secretion of selenoprotein P protein was not observed"}]}
